Test results as given in patent US10131652B2, “Pyrimidinyloxy benzene derivatives as herbicides” (E. I. DU PONT DE NEMOURS AND COMPANY, priority 2014, dated 2018).

How the values were obtained:
Assay type in all cases: in vivo
[1] = system: barnyardgrass (Echinochloa crus-galli); test: Test C flooded paddy test plant response; conditions: Flood, 250 g ai/ha; scale of 0 to 100 where 0 is no effect and 100 is complete control; 13 to 15 days
How it was run: (§1)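 Greenhouse paddy assay, 13–15 days. Treatment into 3 cm floodwater over 2-leaf plants; visual 0–100 rating against controls.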

[2] = system: small-flower umbrella sedge (Cyperus difformis); test: Test C flooded paddy test plant response; conditions: Flood, 250 g ai/ha; scale of 0 to 100 where 0 is no effect and 100 is complete control; 13 to 15 days
How it was run: as §1

rice (Oryza sativa) = test: Test C flooded paddy test plant response; conditions: Flood, 250 g ai/ha; scale of 0 to 100 where 0 is no effect and 100 is complete control; 13 to 15 days
How it was run: as §1

[3] = system: ducksalad (Heteranthera limosa); test: Test C flooded paddy test plant response; conditions: Flood, 250 g ai/ha; scale of 0 to 100 where 0 is no effect and 100 is complete control; 13 to 15 days
How it was run: as §1

[4] = system: galium (catchweed bedstraw, Galium aparine); test: Test B postemergence plant response
How it was run: (§2)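 Values are visual control ratings (0 to 100) recorded approximately 10 days after postemergence application to greenhouse-grown plants of 2 to 10 cm, one- to two-leaf stage, each judged against untreated controls.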

[5] = system: blackgrass (Alopecurus myosuroides); test: Test B postemergence plant response
How it was run: as §2

[6] = system: ragweed (common ragweed, Ambrosia elatior); test: Test B pre-/postemergence plant response
How it was run: (§3)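 Evaluation is visual, about 10 days after application, rating injury from 0 (none) to 100 (complete control) relative to untreated controls. Application was a preemergence soil spray on seeded pots or a postemergence spray on one- to two-leaf plants.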

kochia (Kochia scoparia) = test: Test B pre-/postemergence plant response
How it was run: as §3

[7] = system: wheat (Triticum aestivum); test: Test B pre-/postemergence plant response
How it was run: as §3

[8] = system: barnyardgrass (Echinochloa crus-galli); test: Test B pre-/postemergence plant response
How it was run: as §3

[9] = system: Italian ryegrass (Lolium multiflorum); test: Test B pre-/postemergence plant response
How it was run: as §3

corn (Zea mays) = test: Test B pre-/postemergence plant response
How it was run: as §3

[10] = system: pigweed (Amaranthus retroflexus); test: Test B pre-/postemergence plant response
How it was run: as §3

[11] = system: giant foxtail (Setaria faberii); test: Test B pre-/postemergence plant response
How it was run: as §3

[12] = 125 g ai/ha, postemergence, 0 to 100 scale, 0 no effect, 100 complete control
[13] = Postemergence, 31 g ai/ha, 0 to 100 scale (0 no effect, 100 complete control)
[14] = 31 g ai/ha, Preemergence, 0 to 100 scale where 0 is no effect and 100 is complete control
[15] = Preemergence, 125 g ai/ha, 0 to 100 scale (0 no effect, 100 complete control)

SMILES	Barnyardgrass plant response rating [1]	Sedge, Umbrella plant response rating [2]	Rice plant response rating (rice (Oryza sativa))	Ducksalad plant response rating [3]	Plant response rating, Galium [4, 12]	Plant response rating, Galium [4, 13]	Plant response rating, Blackgrass [5, 12]	Plant response rating, Blackgrass [5, 13]	Plant response rating, Ragweed [6, 14]	Plant response rating, Ragweed [6, 12]	Plant response rating, Ragweed [6, 13]	Ragweed plant response rating [6, 15]	Plant response rating, Kochia (kochia (Kochia scoparia); [14])	Plant response rating, Kochia (kochia (Kochia scoparia); [12])	Plant response rating, Kochia (kochia (Kochia scoparia); [13])	Kochia plant response rating (kochia (Kochia scoparia); [15])	Plant response rating, Wheat [7, 12]	Plant response rating, Wheat [7, 13]	Plant response rating, Barnyardgrass [8, 14]	Plant response rating, Barnyardgrass [8, 12]	other results
Cn1nc(-c2ccccc2Oc2ncc(Cl)cn2)cc1C(F)(F)F [Compound 237]	0	0	0	0	0	0	0	0	0	0	0	0	0	0	0	0	0	0	0	0	Plant response rating, Barnyardgrass [8, 13]: 0; Barnyardgrass plant response rating [8, 15]: 0; Plant response rating, Ryegrass, Italian [9, 14]: 0; Plant response rating, Ryegrass, Italian [9, 12]: 0; Plant response rating, Ryegrass, Italian [9, 13]: 0; Ryegrass, Italian plant response rating [9, 15]: 0; Plant response rating, Corn (corn (Zea mays); [12]): 0; Plant response rating, Corn (corn (Zea mays); [13]): 0; Plant response rating, Pigweed [10, 14]: 0; Plant response rating, Pigweed [10, 12]: 0; Plant response rating, Pigweed [10, 13]: 0; Pigweed plant response rating [10, 15]: 0; Plant response rating, Foxtail, Giant [11, 14]: 0; Plant response rating, Foxtail, Giant [11, 12]: 0; Plant response rating, Foxtail, Giant [11, 13]: 0; Foxtail, Giant plant response rating [11, 15]: 0
Cc1csc(-c2c(C#N)cccc2Oc2ncc(Cl)cn2)c1 [Compound 238]	20	65	15	45	40	0	0	0	0	0	0	0	0	80	20	0	0	0	0	30	Plant response rating, Barnyardgrass [8, 13]: 0; Barnyardgrass plant response rating [8, 15]: 40; Plant response rating, Ryegrass, Italian [9, 14]: 0; Plant response rating, Ryegrass, Italian [9, 12]: 0; Plant response rating, Ryegrass, Italian [9, 13]: 0; Ryegrass, Italian plant response rating [9, 15]: 0; Plant response rating, Corn (corn (Zea mays); [12]): 20; Plant response rating, Corn (corn (Zea mays); [13]): 0; Plant response rating, Pigweed [10, 14]: 0; Plant response rating, Pigweed [10, 12]: 20; Plant response rating, Pigweed [10, 13]: 10; Pigweed plant response rating [10, 15]: 10; Plant response rating, Foxtail, Giant [11, 14]: 0; Plant response rating, Foxtail, Giant [11, 12]: 10; Plant response rating, Foxtail, Giant [11, 13]: 0; Foxtail, Giant plant response rating [11, 15]: 20
FC(F)c1ccc(-c2ccccc2Oc2ncc(Cl)cn2)o1 [Compound 239]	0	0	0	0	0	0	0	0	0	0	0	0	0	0	0	0	0	0	0	0	Plant response rating, Barnyardgrass [8, 13]: 0; Barnyardgrass plant response rating [8, 15]: 0; Plant response rating, Ryegrass, Italian [9, 14]: 0; Plant response rating, Ryegrass, Italian [9, 12]: 0; Plant response rating, Ryegrass, Italian [9, 13]: 0; Ryegrass, Italian plant response rating [9, 15]: 0; Plant response rating, Corn (corn (Zea mays); [12]): 20; Plant response rating, Corn (corn (Zea mays); [13]): 0; Plant response rating, Pigweed [10, 14]: 0; Plant response rating, Pigweed [10, 12]: 20; Plant response rating, Pigweed [10, 13]: 0; Pigweed plant response rating [10, 15]: 0; Plant response rating, Foxtail, Giant [11, 14]: 0; Plant response rating, Foxtail, Giant [11, 12]: 0; Plant response rating, Foxtail, Giant [11, 13]: 0; Foxtail, Giant plant response rating [11, 15]: 0
